{"source": "PubChem BioAssay (NCI)", "key": {"[1]": {"test_system": "CCRF-CEM leukemia", "assay": "inhibition of tumour cell growth, NCI panel, 48 h"}, "[2]": {"test_system": "HL-60(TB) leukemia", "assay": "inhibition of tumour cell growth, NCI panel, 48 h"}}, "note": "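Step 1: Grow cells in 96-well plates. Step 2: Expose to compound for 48 hours at 5 concentrations. Step 3: Interpolate endpoints linearly; if unreached, use highest concentration. GI50 marks 50% less growth.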"}
{"smiles": "Cc1cc(S(=O)(=O)[O-])ccc1-n1nc(C)[c-](N=Nc2cc(S(=O)(=O)[O-])ccc2C(=O)[O-])c1=O.[Cr+3].[Na+].[OH-]", "note": "(configuration not stated)", "values": [{"measurement": "GI50", "setting": "[1]", "result": 468, "unit": "nM"}, {"measurement": "GI50", "setting": "[2]", "result": 28.3, "unit": "µM"}]}
